# Laboratory results from ChEMBL document CHEMBL5528027, “Target identification, and optimization of dioxygenated amide derivatives as potent antibacterial agents with FabH inhibitory activity” (Eur J Med Chem, 2024).
# The source made the active and inactive calls. The calls are words filed in the database; no cut-off is given here.
# How the values were obtained:
# Escherichia coli = test: Antibacterial activity against Escherichia coli assessed as reduction in bacterial growth measured after 24 hrs by two-fold serial dilution method; format: functional
# Pseudomonas aeruginosa = test: Antibacterial activity against Pseudomonas aeruginosa assessed as reduction in bacterial growth measured after 24 hrs by two-fold serial dilution method; format: functional
# Bacillus subtilis = test: Antibacterial activity against Bacillus subtilis assessed as reduction in bacterial growth measured after 24 hrs by two-fold serial dilution method; format: functional
# Staphylococcus aureus [1] = test: Antibacterial activity against Staphylococcus aureus assessed as reduction in bacterial growth measured after 24 hrs by two-fold serial dilution method; format: functional
# Klebsiella pneumoniae = test: Antibacterial activity against Klebsiella pneumoniae assessed as reduction in bacterial growth measured after 24 hrs by two-fold serial dilution method; format: functional
# Streptococcus pneumoniae = test: Antibacterial activity against Streptococcus pneumoniae assessed as reduction in bacterial growth measured after 24 hrs by two-fold serial dilution method; format: functional
# [2] = target: T1, Beta-ketoacyl-[acyl-carrier-protein] synthase III (Escherichia coli K-12, UniProt P0A6R0); test: Inhibition of Escherichia coli FabH
# T1 sequence (P0A6R0 whole entry): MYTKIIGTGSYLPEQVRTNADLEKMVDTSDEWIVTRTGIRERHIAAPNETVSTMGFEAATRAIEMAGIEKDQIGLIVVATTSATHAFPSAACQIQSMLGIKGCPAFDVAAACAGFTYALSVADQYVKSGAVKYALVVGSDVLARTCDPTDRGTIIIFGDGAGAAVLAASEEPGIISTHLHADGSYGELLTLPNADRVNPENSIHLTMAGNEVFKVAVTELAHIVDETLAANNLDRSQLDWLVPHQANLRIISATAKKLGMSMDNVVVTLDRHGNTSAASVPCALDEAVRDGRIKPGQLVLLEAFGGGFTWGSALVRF
# Erythrocyte = test: Hemolytic activity in human erythrocytes assessed as hemolysis by spectrophotometric analysis; format: toxicity, cell-based
# [3] = Cytotoxicity against mouse NIH3T3 cells incubated for 24 hrs by MTT analysis; format: toxicity, cell-based
# [4] = target: T1, Beta-ketoacyl-[acyl-carrier-protein] synthase III; test: Binding affinity to Escherichia coli FabH assessed as dissociation constant by Isothermal titration calorimetry method
# [5] = target: T2, Beta-ketoacyl-[acyl-carrier-protein] synthase III (Escherichia coli K-12) (UniProt P0A6R0); test: Binding affinity to Escherichia coli FabH assessed as change in enthalpy by Isothermal titration calorimetry method
# T2 sequence (whole entry): T1 sequence (P0A6R0 whole entry)
# [6] = target: T2, Beta-ketoacyl-[acyl-carrier-protein] synthase III (Escherichia coli K-12); test: Binding affinity to Escherichia coli FabH assessed as change in entropy by Isothermal titration calorimetry method
# [7] = target: T2, Beta-ketoacyl-[acyl-carrier-protein] synthase III (Escherichia coli K-12); test: Binding affinity to Escherichia coli FabH assessed as change in Gibbs free energy by Isothermal titration calorimetry method
# Staphylococcus aureus [8] = test: In vivo antibacterial activity against Staphylococcus aureus infected in Sprague-Dawley rat skin infection model assessed in shrink of wound area measured after 3 days; format: functional, organism-based; details: time 3.0 day
# Staphylococcus aureus [9] = test: In vivo antibacterial activity against Staphylococcus aureus infected in Sprague-Dawley rat skin infection model assessed in reduction of wound exudation measured after 3 days; format: functional, organism-based; details: time 3.0 day
# Staphylococcus aureus [10] = test: In vivo antibacterial activity against Staphylococcus aureus infected in Sprague-Dawley rat skin infection model assessed in reduction of wound pus measured after 3 days; format: functional, organism-based; details: time 3.0 day
# Staphylococcus aureus [11] = test: In vivo antibacterial activity against Staphylococcus aureus infected in Sprague-Dawley rat skin infection model assessed in reduction of wound size measured after 6 days; format: functional, organism-based; details: time 6.0 day
# Staphylococcus aureus [12] = test: In vivo antibacterial activity against Staphylococcus aureus infected in Sprague-Dawley rat skin infection model assessed in wound healing measured after 10 days (reference value: 70.8%); format: functional; details: time 10 day
# Staphylococcus aureus [13] = test: In vivo antibacterial activity against Staphylococcus aureus infected in Sprague-Dawley rat skin infection model assessed in decrease in number of inflammatory cells within wound tissue measured after 3 to 10 days by H and E staining based analysis; format: functional, organism-based; details: time 3-10 day
MIC (Escherichia coli),MIC (Pseudomonas aeruginosa),MIC (Bacillus subtilis),MIC (Staphylococcus aureus [1]),MIC (Klebsiella pneumoniae),MIC (Streptococcus pneumoniae),IC50 [2],Kd [4],deltaH [5],TdeltaS [6],deltaG [7],Compound,HC30 (Erythrocyte),IC50 at 24 h [3],Activity (Staphylococcus aureus [8]),Activity (Staphylococcus aureus [9]),Activity (Staphylococcus aureus [10]),Activity (Staphylococcus aureus [11]),Activity (Staphylococcus aureus [12]),Activity (Staphylococcus aureus [13])
1.56 µg/mL,1.56 µg/mL,3.13 µg/mL,3.13 µg/mL,1.56 µg/mL,6.25 µg/mL,2 µM,21.5 µM,-80 kcal/mol,-73.6 kcal/mol,-6.4 kcal/mol,COC(=O)c1c[nH]c2cc(NC(=O)c3ccc4c(c3)OCCCO4)ccc12,> 10 µg/mL,142 µM,Active,Active,Active,Active,94%,Active
12.5 µg/mL,3.13 µg/mL,25 µg/mL,3.13 µg/mL,3.13 µg/mL,25 µg/mL,17.5 µM,–,–,–,–,CC(=O)N1CCC(NC(=O)c2ccc3c(c2)OCCCO3)CC1,> 10 µg/mL,132 µM,–,–,–,–,–,–
12.5 µg/mL,50 µg/mL,50 µg/mL,50 µg/mL,50 µg/mL,> 100 µg/mL,19.6 µM,–,–,–,–,COC(=O)c1cccc(-c2ccc(NC(=O)c3ccc4c(c3)OCCCO4)cc2)c1,> 10 µg/mL,161 µM,–,–,–,–,–,–
